Assay results: paper PMC6826623 (2019)

Legend:
Assay in all cases: UV-Vis absorption titration at 316 nm
[1] = system: c-MYC (DNA, G4) TGGGGAGGGTGGGGAGGGTGGGGAAGG; conditions: 100 mM K+, 50 mM Tris-HCl, pH 7.4, parallel G4, per base
[2] = system: hTelo (DNA, G4) AGGGTTAGGGTTAGGGTTAGGG; conditions: 50 mM Tris-HCl
[3] = system: 2HY9 (DNA, G4) AAAGGGTTAGGGTTAGGGTTAGGGAA; conditions: 100 mM K+, 50 mM Tris-HCl, pH 7.4, hybrid G4, per base

Kb [1]: (1.0 ± 0.1) × 10^5 M^-1 | Kb ([2]; 100 mM K+, pH 7.4, 40% (w/v) PEG 200, parallel G4, per base): (3.5 ± 0.9) × 10^5 M^-1 | Kb ([2]; 100 mM Na+, pH 7.4, antiparallel G4, per base): (2.69 ± 0.06) × 10^5 M^-1 | Kb [3]: (1.1 ± 0.1) × 10^5 M^-1
SMILES: COc1ccc2c(c[n+](C)c3c4cc5c(cc4ccc23)OCO5)c1OC
